The values below come from patent publication US20220257595A1, “MACITENTAN FOR USE IN TREATING PORTOPULMONARY HYPERTENSION” (ACTELION PHARMACEUTICALS LTD, priority 2019, published 2022).

Entries after “also recorded” stand apart in the source; their conditions may differ.

Series [1] can be described thus: PORTICO PK substudy: steady-state plasma macitentan and ACT-132577. It counts as in vivo, human. As to the method: It was planned to enroll at least 20 patients who were on steady-state treatment with macitentan (i.e., at least 4 weeks) into the PK substudy. The substudy was conducted in consenting patients from all centers across all regions who agreed to participate. The substudy consisted of the following periods:
PK assessments period: PK assessments were to be performed after OL study treatment had been taken for at least 4 weeks. The substudy comprised two visits (Day 1: Enrollment and Day 2: Conclusion). See, FIG. 2. Subject eligibility was first checked on Day 1 of the PK substudy prior to the start of assessments.
PK substudy: On Day 1 of the PK substudy, the study treatment was required to be taken directly after the pre-dose blood sample. On Day 2 of the PK substudy, study treatment was required to be taken after the collection of the last PK blood sample (24 hours post Day 1 dose).
F3. Pharmacokinetic Endpoints for Macitentan and its Active Metabolite ACT-132577 • The area under the plasma concentration-time curve during one dosing interval (AUCt). • Maximum plasma concentration (Cmax) during a dosing interval. • The time to reach maximum plasma concentration (tmax) during a dosing interval.
(i) Timing for sampling: For the PK assessment, blood samples were drawn at the following time points: • PK substudy Day 1: Immediately before study treatment administration in the morning (pre-dose) and 1 h, 3 h, 5 h, 6 h, 7 h, 8 h, 9 h, 10 h, 12 h, and 14 h post-dose. • PK substudy Day 2: 24 h post-dose.
(iii) Bioanalysis: A validated liquid chromatography coupled to mass spectrometry method was used for determining the concentrations of macitentan and its metabolite ACT-132577 in plasma. The limit of quantification (LOQ) for both analytes was 1 ng/mL.
The measured individual plasma concentrations of macitentan and its metabolite ACT-132577 were used to directly obtain Cmax and tmax. AUCT was calculated according to the linear trapezoidal rule using the measured concentration-time values above the LOQ during one dosing interval. The PK variables were calculated on the basis of the real (actual) blood sampling time points. For mean value calculations, all values below the LOQ (below the limit of quantification (BLQ) values) were set to zero if ≤50% of the values at a given time point were BLQ. If >50% of the values at a given time point were BLQ, no mean value was calculated. Mean concentration-time profiles were generated using these criteria. The individual and mean plasma concentration-time profiles were plotted on a linear scale. The derived PK variables for macitentan and ACT-132577 (AUCT, Cmax, tmax) are listed by patient. Plasma concentrations per time point were summarized using arithmetic mean, minimum, median, maximum, standard deviation (SD), standard error (SE), and two-sided 95% confidence interval of the mean. […] (*For tmax the geometric mean and its 95% confidence interval were not calculated).

For series [2] the following is noted: Phase 1, chronic hepatic impairment, varying grades of liver disease severity; cited from earlier work.
The subject of series [3] is patients with PoPH. Description: PORTICO safety: Child-Pugh classification and MELD score. It is filed as in vivo. The text has this: For the evaluation of treatment-emergent safety endpoints in the DB phase, the observation period for each individual subject started at the time of the first administration of macitentan or placebo and ended with the start of OL treatment or 30 days after DB treatment discontinuation (whichever occurred first). The safety variables listed below apply to the DB treatment-emergent period and the macitentan treatment-emergent period. The DB treatment-emergent period was defined as the period from the DB treatment start date up to the EOT-DB+30 days or to the EOT-DB for patients entering OL. The macitentan treatment-emergent period was defined as the period from the first intake of macitentan up to end of macitentan treatment (EOMT)+30 days. EOMT was defined as EOT-DB (for patient who received macitentan only in the DB period) or EOT-OL when applicable. […]

As to `CCCNS(=O)(=O)Nc1ncnc(OCCOc2ncc(Br)cn2)c1-c1ccc(Br)cc1` [macitentan, N-[5-(4-Bromophenyl)-6-[2-[(5-bromo-2-pyrimidinyl)oxy]ethoxy]-4-pyrimidinyl]-N′-propylsulfamide], the “Plasma exposure in PoPH patients compared with other forms of PAH / other macitentan studies” value in series [1] was “consistent between PoPH patients and patients with other forms of PAH; also recorded: comparable between patients with PoPH and other forms of PAH; also recorded: consistent with those in other macitentan studies”. Also, the “Trough plasma concentration, mean±SD” value in series [1] (OL macitentan 10 mg o.d. at least 4 weeks, PoPH patients, n=8) came to 213.1 ± 86.4 ng/mL. In addition, in series [1] (human, plasma, oral, macitentan 10 mg o.d., PoPH patients, PKS 10 patients, read-out: Cmax, geometric mean (95% confidence interval)), the Cmax came to 369 ng/mL. Also, the Tmax in series [1] (human, plasma, oral, macitentan 10 mg o.d., PoPH patients, PKS 10 patients, read-out: tmax, median (range)) is 6.5 h. Besides, the AUC(0-t) in series [1] (human, plasma, oral, one dosing interval, macitentan 10 mg o.d., PoPH patients, read-out: AUCT, geometric mean (95% confidence interval)) was 6660 ng·h/mL. Further, the “Change in PK of macitentan and its metabolites in hepatic impairment” value in series [2] is given as “no clinically relevant change”. In addition, the “Patients with worsening in Child-Pugh category” value in series [3] (DB phase, macitentan group n=23) was “none”. Besides, the “Median MELD score at Week 12” value in series [3] (DB phase, range 6-15) amounted to 10. In addition, the “Patients worsening from Child-Pugh category A to B during macitentan treatment” value in series [3] (combined DB+OL phase, patient had placebo in DB phase) worked out at 1 patient.
